Results on four compounds are retold here after article PMC7036753, “Lipidated Analogs of the LL-37-Derived Peptide Fragment KR12—Structural Analysis, Surface-Active Properties and Antimicrobial Activity” (International Journal of Molecular Sciences, 2020).

The IC50 is the concentration needed to halve the response being measured. Broadly, the MIC is the lowest concentration found to suppress growth. Read a high MIC as a need for much substance.

Assay [1] deals with human keratinocytes (HaCaT). Type of assay: cell-based. The note with it: 24 h. The protocol:
The cytotoxicity of test compounds (IC50) was evaluated for human keratinocytes (HaCaT, ATCC) using classic MTT assay on 96-well plates. In this assay, a colorimetric determination of the cell metabolic activity was carried out. Specifically, the color intensity reflects the number of live cells that can be measured spectrophotometrically. […] A day after plating 500 cells per well, a series of concentrations (0.5–500 μg/mL) of the test compounds were added. Dimethyl sulfoxide (DMSO) was used as a control in cells at a final concentration of 1.0% (v/v), which was related to the maximal concentration of the solvent compounds used in the experiment. After 24 h of incubation with test compounds, a medium containing 1 mg/mL of MTT was added up to a final concentration of 0.5 mg/mL and subsequently incubated at 37 °C for 4 h. Then, the medium was aspirated and the formazan product was solubilized with DMSO. The background absorbance at 630 nm was subtracted from that at 570 nm for each well (Epoch, BioTek Instruments, Winooski, VT, USA). Six replicates were conducted for each concentration. All experiments were repeated at least twice and the resulting IC50 values were calculated with a GraFit 7 software (v. 7.0, Erithacus, Berkley, CA, USA).

Assay [2] relates to E. faecium ATCC 700221. Type of assay: cell-based, Enterococcus faecium. The following applies: ATCC 700221, 18 h. Here is the method:
(§1) Examination of antimicrobial activity of the test compounds was conducted on reference strains of bacteria assigned to ESKAPE group of pathogens: Enterococcus faecium ATCC 700221, Klebsiella pneumoniae ATCC 700603, Acinetobacter baumannii ATCC BAA-1605, Pseudomonas aeruginosa ATCC 9027, Klebsiella aerogenes ATCC 13048 (formerly Enterobacter aerogenes) and reference strains of Staphylococcus aureus, namely: S. aureus ATCC 25923, S. aureus ATCC 6538, S. aureus ATCC 33591 (MRSA), S. aureus ATCC 9144 and S. aureus ATCC 12598. All the strains were stored at −80 °C in Roti®-Store cryo vials (Carl Roth GmbH, Karlsruhe, Germany) and before the tests were transferred into fresh Mueller-Hinton Medium (BioMaxima, Lublin, Poland) and incubated for 24 h at 37 °C. Subsequently, each bacterial inoculum was seeded on Mueller-Hinton Agar plates (BioMaxima) and incubated again for 24 h. The cultures prepared in this way were used in further antimicrobial assays and prepared as described above. The MIC values were determined by the broth microdilution method according to Clinical and Laboratory Standards Institute Protocol. For this purpose, initial inoculums of bacteria (0.5 × 10^5 colony forming unit (CFU)/mL) in Mueller–Hinton Broth were exposed to the ranging concentrations of compounds (0.5–256 µg/mL) and incubated for 18 h at 37 °C. The experiments were conducted on 96-well microtiter plates, with a final volume of 100 µL. Cell densities were adjusted spectrophotometrically (Multiskan™ GO Microplate Spectrophotometer, Thermo Scientific) at 600 nm. The MICs were taken as the lowest drug concentration at which a visible growth of microorganisms was inhibited. All experiments were conducted in triplicate and included positive (growth) and negative (sterility) controls.

Assay [3] deals with ESKAPE strains. The format is cell-based. The following applies: 24 h. The protocol:
as §1, with “For this purpose, initial inoculums of bacteria (0.5 × 10^5 colony forming unit (CFU)/mL) in Mueller–Hinton Broth were exposed to the ranging concentrations of compounds (0.5–256 µg/mL) and incubated for 18 h at 37 °C.” left out, “The MICs were taken as the lowest drug concentration at which a visible growth of microorganisms was inhibited. All experiments were conducted in triplicate and included positive (growth) and negative (sterility) controls.” left out

Assay [4] concerns A. baumannii ATCC BAA-1605. The format is cell-based, Acinetobacter baumannii. The following applies: ATCC BAA-1605, 18 h. Here is the method:
as §1

Assay [5] has as its system P. aeruginosa ATCC 9027. Type of assay: cell-based, Pseudomonas aeruginosa. The following applies: ATCC 9027, 18 h. The protocol: as §1
The subject of assay [6] is S. aureus ATCC 12598 biofilm. The format is cell-based, Staphylococcus aureus. The following applies: ATCC 12598, 24 h. The protocol:
(§2) The MBECs values were determined according to the method reported previously. Briefly, 24-h cultures of S. aureus, namely: S. aureus ATCC 25923, S. aureus ATCC 6538, S. aureus ATCC 33591 (MRSA), S. aureus ATCC 9144 and S. aureus ATCC 12598 were diluted to a concentration of 0.5 × 10^7 CFU/mL and added to the test wells of polystyrene microdilution flat-bottom plates. After 24-h of incubation at 37 °C, the wells were rinsed three times with PBS to remove non-adherent cells. Subsequently, 100 μL of the test compounds over a concentration range 0.5–256 µg/mL were added to each well and incubated again for 24 h at 37 °C. After this period, 20 μL of the resazurin (7-hydroxy-3H-phenoxazin-3-one-10-oxide, 4 mg/mL) solution was added to each well. After 1 h of incubation, the MBECs were read out. The determined values were recorded as the lowest concentration at which the reduction of resazurin (from blue to pink) was lower or equal to 10 ± 0.5% as compared to the positive (100%) and negative (0%) controls. All experiments were performed in triplicate.

Assay [7] has as its system S. aureus ATCC 6538 biofilm. Type of assay: cell-based, Staphylococcus aureus. The note with it: ATCC 6538, 24 h. The protocol: as §2
Assay [8] relates to S. aureus ATCC 25923 biofilm. Type of assay: cell-based, Staphylococcus aureus. The following applies: ATCC 25923, 24 h. The protocol: as §2
For assay [9], the system named is S. aureus ATCC 33591 (MRSA) biofilm. The format is cell-based, Staphylococcus aureus. The note with it: ATCC 33591, 24 h. The protocol: as §2
Assay [10] relates to S. aureus ATCC 9144 biofilm. Type of assay: cell-based, Staphylococcus aureus. The note with it: ATCC 9144, 24 h. The protocol: as §2
For assay [11], the system named is S. aureus ATCC 9144. The format is cell-based, Staphylococcus aureus. The following applies: ATCC 9144, 18 h. The protocol: as §1
Assay [12] relates to S. aureus ATCC 33591 (MRSA). The format is cell-based, Staphylococcus aureus. The following applies: ATCC 33591, 18 h. Here is the method:
as §1

Assay [13] relates to S. aureus ATCC 12598. Type of assay: cell-based, Staphylococcus aureus. The following applies: ATCC 12598, 18 h. The protocol: as §1
Assay [14] relates to S. aureus ATCC 25923. Type of assay: cell-based, Staphylococcus aureus. The following applies: ATCC 25923, 18 h. The protocol: as §1
For assay [15], the system named is S. aureus ATCC 6538. Type of assay: cell-based, Staphylococcus aureus. The following applies: ATCC 6538, 18 h. The protocol:
as §1

Assay [16] deals with K. aerogenes ATCC 13048. The format is cell-based, Klebsiella aerogenes. The following applies: ATCC 13048, 18 h. Here is the method: as §1
In assay [17] the test system is reference strains of S. aureus. The format is cell-based, Staphylococcus aureus. The note with it: reference strains of, 24 h. Here is the method: as §1, with “For this purpose, initial inoculums of bacteria (0.5 × 10^5 colony forming unit (CFU)/mL) in Mueller–Hinton Broth were exposed to the ranging concentrations of compounds (0.5–256 µg/mL) and incubated for 18 h at 37 °C.” left out

Assay [18] concerns K. pneumoniae ATCC 700603. Type of assay: cell-based, Klebsiella pneumoniae. The following applies: ATCC 700603, 18 h. Here is the method: as §1

Values after ≈ are worked out from the molar mass of the structure shown. Ends that are not written are not given here. Peptide text beside a SMILES is read from it. * marks the point of attachment. X1 = O=C(/C=C/c1ccccc1)*; Hexanoyl = CCCCCC(=O)*; Butyryl = CCCC(=O)*

Turning to `CC[C@H](C)[C@H](NC(=O)[C@H](CCCNC(=N)N)NC(=O)[C@H](CCC(N)=O)NC(=O)[C@@H](NC(=O)[C@@H](NC(=O)[C@H](CCCNC(=N)N)NC(=O)[C@H](CCCCN)NC(=O)/C=C/c1ccccc1)[C@@H](C)CC)C(C)C)C(=O)N[C@@H](CCCCN)C(=O)N[C@@H](CC(=O)O)C(=O)N[C@@H](Cc1ccccc1)C(=O)N[C@@H](CC(C)C)C(=O)N[C@@H](CCCNC(=N)N)C(N)=O` [IX, trans-Cinnamic acid-KR12-NH2] (X1-KRIVQRIKDFLR-NH2), in assay [1], the IC50 was determined as 10.00 µg/mL (≈ 5.88 µM). Besides, the MIC came out at 1 µg/mL (≈ 0.588 µM) in assay [2]; 4 µg/mL (≈ 2.35 µM) in assay [4]; 4 µg/mL (≈ 2.35 µM) in assay [5]; 4 µg/mL (≈ 2.35 µM) in assay [11]; 4 µg/mL (≈ 2.35 µM) in assay [12]; 4 µg/mL (≈ 2.35 µM) in [13]. The minimal inhibitory concentration (MIC) in assay [14] came out at 8 µg/mL (≈ 4.7 µM); in [15], 2 µg/mL (≈ 1.18 µM); in assay [16] it was 4 µg/mL (≈ 2.35 µM); in assay [18], 4 µg/mL (≈ 2.35 µM). In addition, the MIC range in assay [3] fell in the range of 1 to 8 µg/mL. Moreover, the MBEC stood at 4 µg/mL in assay [6]; 8 µg/mL in assay [7]; 32 µg/mL in assay [8]; 16 µg/mL in assay [9]; 8 µg/mL in assay [10]. Moreover, in assay [17], the “GM (geometric mean of the MIC values against S. aureus)” value (“GM” below) stood at 4.00 µg/mL.

`CCCCCC(=O)N[C@@H](CCCCN)C(=O)N[C@@H](CCCNC(=N)N)C(=O)N[C@H](C(=O)N[C@H](C(=O)N[C@@H](CCC(N)=O)C(=O)N[C@@H](CCCNC(=N)N)C(=O)N[C@H](C(=O)N[C@@H](CCCCN)C(=O)N[C@@H](CC(=O)O)C(=O)N[C@@H](Cc1ccccc1)C(=O)N[C@@H](CC(C)C)C(=O)N[C@@H](CCCNC(=N)N)C(N)=O)[C@@H](C)CC)C(C)C)[C@@H](C)CC` [III, C6-KR12-NH2] (Hexanoyl-KRIVQRIKDFLR-NH2) showed an IC50 in assay [1] of 10.13 µg/mL (≈ 6.07 µM). Further, the MIC in [2] was 2 µg/mL (≈ 1.2 µM); in assay [4], 16 µg/mL (≈ 9.59 µM); in assay [5], 8 µg/mL (≈ 4.79 µM); in [11], 8 µg/mL (≈ 4.79 µM); in [12], 16 µg/mL (≈ 9.59 µM); in [13] it was 8 µg/mL (≈ 4.79 µM). The minimum inhibitory concentration (MIC) in assay [14] was found to be 16 µg/mL (≈ 9.59 µM); in assay [15], 4 µg/mL (≈ 2.4 µM); in assay [16], 16 µg/mL (≈ 9.59 µM); in assay [18], 16 µg/mL (≈ 9.59 µM). Also, the MBEC stood at 16 µg/mL in assay [6]; 16 µg/mL in assay [7]; 32 µg/mL in [8]; 16 µg/mL in assay [9]; 16 µg/mL in assay [10]. The “GM” value in assay [17] was 9.19 µg/mL.

`CCCC(=O)N[C@@H](CCCCN)C(=O)N[C@@H](CCCNC(=N)N)C(=O)N[C@H](C(=O)N[C@H](C(=O)N[C@@H](CCC(N)=O)C(=O)N[C@@H](CCCNC(=N)N)C(=O)N[C@H](C(=O)N[C@@H](CCCCN)C(=O)N[C@@H](CC(=O)O)C(=O)N[C@@H](Cc1ccccc1)C(=O)N[C@@H](CC(C)C)C(=O)N[C@@H](CCCNC(=N)N)C(N)=O)[C@@H](C)CC)C(C)C)[C@@H](C)CC` [II, C4-KR12-NH2] (Butyryl-KRIVQRIKDFLR-NH2) displayed an IC50 in assay [1] of 38.73 µg/mL (≈ 23.6 µM). In addition, the MIC is listed as 4 µg/mL (≈ 2.44 µM) in assay [2]; over 256 µg/mL in [4]; 32 µg/mL (≈ 19.5 µM) in assay [5]; 64 µg/mL (≈ 39 µM) in assay [11]; 128 µg/mL (≈ 78 µM) in assay [12]; 64 µg/mL (≈ 39 µM) in [13]. For the same compound, the MIC in [14] came out at 128 µg/mL (≈ 78 µM); in [15] it was 32 µg/mL (≈ 19.5 µM); in [16], 128 µg/mL (≈ 78 µM); in [18], 128 µg/mL (≈ 78 µM). Besides, the MBEC came out at 128 µg/mL in assay [6]; 128 µg/mL in assay [7]; 256 µg/mL in assay [8]; 128 µg/mL in assay [9]; 128 µg/mL in assay [10]. The “GM” value in assay [17] is 73.52 µg/mL.

With KRIVQRIKDFLR-NH2 [X, KRIVQRIKDFLR-NH2], in [1], the IC50 is given as 74.60 µg/mL. Besides, the MIC in [2] is 8 µg/mL; in [4], 256 µg/mL; in assay [5] it was 16 µg/mL; in assay [11], over 256 µg/mL; in assay [12], over 256 µg/mL; in assay [13], over 256 µg/mL. Moreover, the MIC in assay [14] is over 256 µg/mL; in assay [15], 256 µg/mL; in assay [16] it was over 256 µg/mL; in assay [18] it was over 256 µg/mL. Further, the MBEC in [6], in assay [7], in assay [8], in assay [9] and in [10] was over 256 µg/mL in each case. Also, the “GM” value in assay [17] was over 256.00 µg/mL.
